Measurements published in patent US20210040485A1, “Elimination or Neutralization of Endogenous High Molecular Weight FGF-2 Increases Cardiac Resistance to Doxorubicin-Induced Damage” (University of Manitoba, priority 2018, published 2021).
Like-named read-outs stand apart in the source and are kept apart here.

Tests used:
[1] = test system: FGF2(WT), FGF2(−), FGF2(Hi), FGF2(Lo) mice; experiment: In vivo model for acute Doxorubicin effects: mortality and body weight; set-up: species or system mouse; conditions: for effect on body weight: all groups, 10 days post-injection; for Dox-induced mortality: by day 10 post-Dox
Text: In vivo model for acute cardiotoxic effects. […] Hearts were then collected for biochemical analyses.

[2] = test system: neonatal rat ventricular cardiomyocytes co-cultured with MEFs; experiment: MEF-cardiomyocyte co-cultures exposed to Dox: Troponin T release into medium; format: cell-based; conditions: Dox 0.5 μM, 24 h
Method: In vitro experiments. Neonatal rat ventricular cardiomyocytes (referred to as ‘cardiomyocytes’) were isolated from 1-2 day old rat pups as previously described (10).
MEF-Cardiomyocyte co-cultures. Cardiomyocytes were plated at a density of 5×10^4 cells/cm^2 on collagen (Corning, #354236) coated glass coverslips in the presence of 20% fetal bovine serum (FBS) in Hams F-10 culture medium; 24 hours later the media was changed and MEFS from FGF2(WT), FGF2(−), FGF2(Hi), and FGF2(Lo) strains (2×10^4/cm^2) were added to the cultures in low-serum medium (0.5% FBS, 1% insulin, 1% transferrin/selenium, and 1% ascorbic acid) in Dulbecco's modified Eagle's medium (DMEM). […] Conditioned media were collected 24 h later, and stored at −80° C. Cells attached on coverslips were used for the Calcein-AM/Cobalt chloride mPTP assay.
Primary mouse embryonic fibroblasts (MEFs)-r-cardiomyocyte co-cultures. MEFs were isolated as described (30). R-cardiomyocytes were plated at a density of 5×10^4 cells/cm^2 on collagen (Corning, #354236) coated glass coverslips in the presence of 20% fetal bovine serum (FBS) in Hams F-10 culture medium; 24 hours later the media was changed and MEFS from FGF2(WT) and FGF2(Lo) strains (2×10^4/cm^2) were added to the cultures in low-serum medium (0.5% FBS, 1% insulin, 1% transferrin/selenium, and 1% ascorbic acid) in Dulbecco's modified Eagle's medium (DMEM). […]

[3] = test system: r-cardiomyocytes co-cultured with human FibiPSC; experiment: FibiPSC-cardiomyocyte co-cultures exposed to Dox: cTnT release; format: cell-based, rat; conditions: control (IgG) co-cultures with h-FibiPSC; Dox 0.5 μM, 24 h
Method: Fib^iPSC-Cardiomyocyte co-cultures. Cardiomyocytes were plated at a density of 5×10^4 cells/cm^2 on collagen coated plates in the presence of 20% (FBS) in Hams F-10 culture medium. After 24 hours, the media was changed to low serum medium (0.5% FBS, 1% insulin, 1% transferrin/selenium, 1% ascorbic acid, and 1% bovine serum albumin) in Dulbecco's modified Eagle's medium (DMEM). FibiPSC were added to the cultures at a density of 3×10^4/cm^2. Human Hi-FGF2 antibody (Hi-Ab, 20 μg/ml) or non-immune rabbit IgG was added to the culture after 6 hours. The Hi-Ab and rabbit IgG were supplemented in the co-cultures every 24 hours. […] Subsequently, the media was collected and stored at −80° C.
Protein extraction and immunoblotting (western blot).
Hi-FGF2 antibody. Anti-Hi-FGF2 antibody (Hi-Ab) against 12 amino acids from the N-terminal section of the Hi-FGF2 “[…]” (SEQ ID NO:1) was made in rabbit and affinity purified by Genscript. Characterization was done as we described previously, for a similar preparation anti-Hi-FGF2 (9). Affinity purified Hi-Ab was used at a concentration of 20 μg/ml in in vitro models.

[4] = test system: Bnip3 protein in hearts of FGF2 mouse strains; conditions: in vivo
Method: Protein (western) immunoblotting. At the end of the in vivo study, hearts were collected, snap frozen in liquid nitrogen, and stored at −80° C. Hearts were powdered with liquid nitrogen using a mortar and pestle prior to being homogenized in 10 mM Tris-HCl pH 7.4, 100 mM NaCl, 300 mM sucrose, 2 mM MgCl2, 1% thiodiglycol, 60 mM B glycerophosphate, 10 mM NaF and an equal volume of 20% glycerol, 100 mM Tris/HCl PH=6.8, and 2% sodium dodecyl sulphate (SDS). All buffers were supplemented (1:100) with protease inhibitor cocktail (Sigma-Aldrich, #8304) and phosphatase inhibitor cocktail set II and IV (Calbiochem, #524625 and #524628). Samples were boiled, sonicated, and centrifuged 15 minutes at 21,000 g to remove cellular debris. Protein concentration was measured by bicinchoninic acid assay. Following SDS-polyacrylamide gel electrophoresis and protein transfer to polyvinylidene fluoride (PVDF) membranes, total protein was stained using 2% Ponceau S (Sigma-Aldrich, P3504) (w/v) in 30% trichloroacetic acid to assess overall protein transfer. Non-specific binding sites were blocked by incubation in 10% milk/TBS-T for 1 hour at room temperature. […]
Protein extraction and immunoblotting (western blot). […] Protein concentration was measured using the bicinchoninic acid assay from Sigma. […]

cancer patients = conditions: cited from earlier work
[5] = clinic; cited from earlier work

Substance | effect on body weight [1] | effect on body weight ([1]; listed as Doxorubicin) | deaths associated with Dox administration ([1]; female FGF2(WT) and FGF2(Lo) groups) | Dox-induced mortality ([1]; female FGF2(−) mice) | post-Dox mortality ([1]; male FGF2(Hi) mice) | post-Dox mortality ([1]; male FGF2(WT) mice) | Dox-induced mortality ([1]; male FGF2(−) mice) | deaths associated with Dox administration ([1]; males, in either the FGF2(WT) or the FGF2(Lo) group) | deaths post-Dox ([1]; remaining female groups (other than FGF2(−))) | Dox-induced cTnT release ([2]; co-cultures with FGF2(WT) MEFs) | Dox-induced Tn-T release ([2]; co-cultures with FGF2(WT), FGF2(−) and FGF2(Hi) MEFs) | cardiomyocyte damage measured by cTnT release [3] | upregulation of cardiac Bnip3 protein versus saline-treated group [4] | incidence of cardiotoxicity (cancer patients; cumulative dose 400 mg/m^2) | incidence of cardiotoxicity (cancer patients; cumulative dose 700 mg/m^2) | half life [5]
Doxorubicin | some weight loss | significantly decreased body weight | No death | 30% | 20% | 10% | 70% | one death in ten animals | No deaths | observed | observed | robust cardiomyocyte damage | 1.5 fold | 3-5% | 18-48% | 
infliximab |  |  |  |  |  |  |  |  |  |  |  |  |  |  |  | 9.5 days
pertuzumab |  |  |  |  |  |  |  |  |  |  |  |  |  |  |  | 18 days
